Test results reported in patent publication US8143374B2, “Polypeptide derivatives of parathyroid hormone (PTH)” (The General Hospital Corporation, priority 2006, dated 2012).
“Also recorded” adds a separate entry of the source. Like-named read-outs stand apart in the source and are kept apart here. Where a SMILES comes first, the peptide text is derived from it. Where no end group is shown, it is not given here. [ ]: non-standard residue; d: D form. Apa = (S)-2-amino-4[(2-amino)pyrimidinyl]methylalanine; Cha = N[C@@H](CC1CCCCC1)C(=O)O; Orn = NCCC[C@H](N)C(=O)O

Target: T1, wild-type human PTHR (Homo sapiens, UniProt Q03431)
T1 construct: expressed in transfected cells
T1 sequence (Q03431 27-593): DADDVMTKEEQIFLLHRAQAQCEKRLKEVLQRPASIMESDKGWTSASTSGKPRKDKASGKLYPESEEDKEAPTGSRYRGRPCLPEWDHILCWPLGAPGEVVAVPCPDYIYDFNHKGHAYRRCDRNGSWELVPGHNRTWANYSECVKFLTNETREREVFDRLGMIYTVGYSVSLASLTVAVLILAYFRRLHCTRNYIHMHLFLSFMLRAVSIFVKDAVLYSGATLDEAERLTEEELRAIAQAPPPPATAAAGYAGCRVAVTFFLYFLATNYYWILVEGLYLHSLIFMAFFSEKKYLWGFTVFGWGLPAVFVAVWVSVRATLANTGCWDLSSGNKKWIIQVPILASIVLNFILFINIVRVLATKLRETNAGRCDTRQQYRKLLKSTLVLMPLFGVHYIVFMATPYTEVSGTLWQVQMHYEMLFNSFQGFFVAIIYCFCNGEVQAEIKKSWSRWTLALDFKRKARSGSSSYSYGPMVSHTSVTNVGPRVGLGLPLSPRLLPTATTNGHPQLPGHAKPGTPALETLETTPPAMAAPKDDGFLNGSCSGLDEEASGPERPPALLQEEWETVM
Assay: Competition binding in intact HKRK-B7 cells with 125I-PTH(1-34) tracer
Conditions: for reduction (alteration) of apparent binding affinity for the intact PTHR relative to parent peptide / detectable binding to the intact PTHR (in words) / enhancement in apparent PTHR-binding affinity relative to parent peptide: HKRK-B7 cells; for reduction (alteration) of apparent binding affinity for the intact PTHR relative to parent peptide: versus the respective parent peptide; for IC50: intact HKRK-B7 cells, read-out: PTHR-WT (HKRK-B7 cells) IC50; for enhancement in apparent PTHR-binding affinity relative to parent peptide: versus PTH(1-31)NH2
Description: Cell Culture—Cells were cultured at 37° C. in a humidified atmosphere containing 5% CO2 in Dulbecco's modified Eagle's medium (DMEM), supplemented with 10% fetal bovine serum (HyClone, Logan Utah), 100 units/ml penicillin G, and 100 ug/ml streptomycin penicillin G/streptomycin (Invitrogen Corp. Carlsbad, Calif.). For binding and cAMP studies performed with the intact PTHR, the HKRK-B7 and ROS 17/2.8 cell lines were used. HKRK-B7 cells are derived from the porcine kidney cell line LLC-PK1 and express, via stable DNA transfection, the wild-type human PTHR at an approximate surface density of 950,000 PTH-binding sites per cell. ROS 17/2.8 cells are rat osteosarcoma cells and express the endogenous PTHR at an approximate surface density of 80,000 PTH-binding sites per cell. The cells were plated and assayed in 24-well plates.
Receptor binding—Binding to the wild-type human PTHR in intact HKRK-B7 cells and ROS 17/2.8 cells was assessed using ^125I-PTH(1-34) as a tracer radioligand, as described (Shimizu, M., (2001) Endocrinology 142:3068-3074). In brief, the cells in 24-well plates (about 500,000 cells per well) were incubated in binding buffer containing radioligand (about 100,000 cpm per well) with or without unlabeled peptide ligand (3×10^−9 to 1×10^−5 M) for four hours at 15° C. The binding mixture was then removed by aspiration, the cells were rinsed three times with binding buffer, lysed in 1 M NaOH, and the entire lysate was counted for gamma-irradiation in a gamma counter. Binding to PTHR-delNt in COS-7 cell membranes was assessed in 96-well, vacuum filtration plates (Multiscreen-Durapore HV, […] membranes, Millipore Corp., Millford, Mass.) using ^125I-[Aib^1,3,M]PTH(1-15)NH2 as a tracer radioligand, as described (Dean, T., (2006) Mol Endocrinol 20:931-942). In brief, cell membranes (20 μg/well) were incubated in membrane binding buffer containing radioligand (30,000 cpm/well) with or without unlabeled peptide ligand (3×10^−9 to 1×10^−5 M) for 90 minutes at 21° C. The plates were then subject to rapid vacuum filtration, the filters were washed once with buffer, detached from the plate and counted for gamma-irradiation in a gamma counter. Non-specific binding was defined as the binding observed in the presence of 1×10^−6 M PTH(1-31)NH2 for HKRK-B7 and ROS 17/2.8 cells, and 1×10^−6 M [Aib^1,3,M]PTH(1-15)NH2 for PTHR-delNt. Specifically bound radioactivity was calculated as a percentage of the radioactivity specifically bound in the absence of competing ligand.
Data and statistical calculations—Data were processed for curve fitting and derivation of IC50 and EC50 values using least-squares, nonlinear regression analysis and the four parameter logistic equation: […], where y, ymin and ymax are the observed, minimum and maximum response values, respectively; x is ligand concentration, and n is the slope factor. In cases where incomplete inhibition of binding occurred: i.e. with certain PTH(1-31) analogs binding to PTHR-delNt, the curve fits and IC50 values were derived by extrapolating the data to the maximum inhibition attained by [Aib^1,3,M]PTH(1-15)NH2. Paired data sets were statistically compared using a two-tailed Student's t-test, assuming unequal variances for the two sets.

[1] = hPTH(1-31)NH2 analogs, 125I-[Nle8,21,Tyr34]ratPTH(1-34)NH2 tracer
[2] = [Ala1,Arg19]hPTH(1-31)NH2 analogs, 125I-[Nle8,21,Tyr34]rPTH(1-34)NH2 tracer

Compound | reduction (alteration) of apparent binding affinity for the intact PTHR relative to parent peptide | IC50 [1] | also measured
SVSEIQLMHNLGKHLNSMERVEWLAKKLQDV-NH2 [Arg^25→Ala] | three- to four-fold | – | –
SVSEIQLMHNLGKHLNSMEKVEWLRKKLQDV-NH2 [Arg^20→Lys] | – | > 10000 nM | detectable binding to the intact PTHR (in words): complete loss of detectable binding affinity
SVSEIQLMHNLGKHLNSMEAVEWLRKKLQDV-NH2 [Arg^20→Ala] | – | > 10000 nM | detectable binding to the intact PTHR (in words): abolished detectable binding altogether; also recorded: abolished binding to the PTHR
CC[C@H](C)[C@H](NC(=O)[C@H](CCC(=O)O)NC(=O)[C@H](CO)NC(=O)[C@@H](NC(=O)[C@H](C)N)C(C)C)C(=O)N[C@@H](CCC(N)=O)C(=O)N[C@@H](CC(C)C)C(=O)N[C@@H](CCSC)C(=O)N[C@@H](Cc1c[nH]cn1)C(=O)N[C@@H](CC(N)=O)C(=O)N[C@@H](CC(C)C)C(=O)NCC(=O)N[C@@H](CCCCN)C(=O)N[C@@H](Cc1c[nH]cn1)C(=O)N[C@@H](CC(C)C)C(=O)N[C@@H](CC(N)=O)C(=O)N[C@@H](CO)C(=O)N[C@@H](CCSC)C(=O)N[C@@H](CCCNC(=N)N)C(=O)N[C@@H](CC1CCCCC1)C(=O)N[C@H](C(=O)N[C@@H](CCC(=O)O)C(=O)N[C@@H](Cc1c[nH]c2ccccc12)C(=O)N[C@@H](CC(C)C)C(=O)N[C@@H](CCCNC(=N)N)C(=O)N[C@@H](CCCCN)C(=O)N[C@@H](CCCCN)C(=O)N[C@@H](CC(C)C)C(=O)N[C@@H](CCC(N)=O)C(=O)N[C@@H](CC(=O)O)C(=O)N[C@H](C(N)=O)C(C)C)C(C)C [Arg^20→Cha, AlaValSerGluIleGlnLeuMetHisAsnLeuGlyLysHisLeuAsnSerMetArgChaValGluTrpLeuArgLysLysLeuGlnAspVal] (H-AVSEIQLMHNLGKHLNSMR[Cha]VEWLRKKLQDV-NH2; N-terminus assumed) | 120 fold | – | –
AVSEIQLMHNLGKHLNSMRRVEWERKKLQDV-NH2 [Leu^24→Glu] | – | – | detectable binding to the intact PTHR (in words): abolished detectable binding; IC50 [2]: > 10000 nM
AVSEIQLMHNLGKHLNSMERVEWLRKKLQDV-NH2 [Arg^19→Glu] | two- to five-fold reductions | – | IC50 [2]: 125 ± 29 nM
CC[C@H](C)[C@H](NC(=O)[C@H](CCC(=O)O)NC(=O)[C@H](CO)NC(=O)[C@@H](NC(=O)[C@H](C)N)C(C)C)C(=O)N[C@@H](CCC(N)=O)C(=O)N[C@@H](CC(C)C)C(=O)N[C@@H](CCSC)C(=O)N[C@@H](Cc1c[nH]cn1)C(=O)N[C@@H](CC(N)=O)C(=O)N[C@@H](CC(C)C)C(=O)NCC(=O)N[C@@H](CCCCN)C(=O)N[C@@H](Cc1c[nH]cn1)C(=O)N[C@@H](CC(C)C)C(=O)N[C@@H](CC(N)=O)C(=O)N[C@@H](CO)C(=O)N[C@@H](CCSC)C(=O)N[C@@H](CCCNC(=N)N)C(=O)N[C@@H](CCCNC(=N)N)C(=O)N[C@H](C(=O)N[C@@H](CCC(=O)O)C(=O)N[C@@H](Cc1c[nH]c2ccccc12)C(=O)N[C@@H](CC(C)C)C(=O)N[C@@H](CCCNC(=N)N)C(=O)N[C@@H](CCCCN)C(=O)N[C@@H](CCCCN)C(=O)N[C@@H](CC(C)C)C(=O)N[C@@H](CCC(N)=O)C(=O)N[C@@H](CC1CCCCC1)C(=O)N[C@H](C(N)=O)C(C)C)C(C)C [Asp^30→Cha] (H-AVSEIQLMHNLGKHLNSMRRVEWLRKKLQ[Cha]V-NH2; N-terminus assumed) | – | – | IC50 [2]: 54 ± 7 nM
SVSEIQLMHNLGKHLNSMERVEWLRKKLADV-NH2 [Gln^29→Ala] | – | – | enhancement in apparent PTHR-binding affinity relative to parent peptide: ≦two-fold
AVSEIQLMHNLGKHLNSMRRVEWLEKKLQDV-NH2 [Arg^25→Glu] | two- to five-fold reductions | – | –
Arg^20→Apa: hPTH(1-31)NH2 analog with Arg^20 replaced by (S)-2-amino-4[(2-amino)pyrimidinyl]methylalanine (Apa) (SVSEIQLMHNLGKHLNSME[Apa]VEWLRKKLQDV-NH2) | – | > 10000 nM | detectable binding to the intact PTHR (in words): complete loss of detectable binding affinity
SVSEIQLMHNLGKHLNSMERVAWLRKKLQDV-NH2 [Glu^22→Ala] | – | – | enhancement in apparent PTHR-binding affinity relative to parent peptide: ≦two-fold
SVSEIQLMHNLGKHLNSMEEVEWLRKKLQDV [Arg^20→Glu] | – | – | detectable binding to the intact PTHR (in words): abolished detectable binding; also recorded: complete loss of detectable binding affinity
CC[C@H](C)[C@H](NC(=O)[C@H](CCC(=O)O)NC(=O)[C@H](CO)NC(=O)[C@@H](NC(=O)[C@@H](N)CO)C(C)C)C(=O)N[C@@H](CCC(N)=O)C(=O)N[C@@H](CC(C)C)C(=O)N[C@@H](CCSC)C(=O)N[C@@H](Cc1c[nH]cn1)C(=O)N[C@@H](CC(N)=O)C(=O)N[C@@H](CC(C)C)C(=O)NCC(=O)N[C@@H](CCCCN)C(=O)N[C@@H](Cc1c[nH]cn1)C(=O)N[C@@H](CC(C)C)C(=O)N[C@@H](CC(N)=O)C(=O)N[C@@H](CO)C(=O)N[C@@H](CCSC)C(=O)N[C@@H](CCC(=O)O)C(=O)N[C@@H](CCCN)C(=O)N[C@H](C(=O)N[C@@H](CCC(=O)O)C(=O)N[C@@H](Cc1c[nH]c2ccccc12)C(=O)N[C@@H](CC(C)C)C(=O)N[C@@H](CCCNC(=N)N)C(=O)N[C@@H](CCCCN)C(=O)N[C@@H](CCCCN)C(=O)N[C@@H](CC(C)C)C(=O)N[C@@H](CCC(N)=O)C(=O)N[C@@H](CC(=O)O)C(=O)N[C@H](C(N)=O)C(C)C)C(C)C [Arg^20→Orn] (H-SVSEIQLMHNLGKHLNSME[Orn]VEWLRKKLQDV-NH2; N-terminus assumed) | – | > 10000 nM | –
SVSEIQLMHNLGKHLNSMEQVEWLRKKLQDV-NH2 [Arg^20→Gln] | – | > 10000 nM | detectable binding to the intact PTHR (in words): complete loss of detectable binding affinity
SVSEIQLMHNLGKHLNSMARVAWLRKKLQDV-NH2 [Glu^19,22→Ala,Ala] | – | 49 ± 9 nM | enhancement in apparent PTHR-binding affinity relative to parent peptide: did not lead to further improvements

Second part, led by results:

reduction (alteration) of apparent binding affinity for the intact PTHR relative to parent peptide | IC50 [1] | Compound | also measured
two- to five-fold reductions | – | AVSEIQLMHNLGKHLNSMRRVEWLRKELQDV-NH2 [Lys^27→Glu] | –
19 fold | – | SVSEIQLMHNLGKHLNSMERVEALRKKLQDV-NH2 [Trp^23→Ala] | –
three- to four-fold | – | SVSEIQLMHNLGKHLNSMERVEWLRKKLQDA-NH2 [Val^31→Ala] | –
– | 125 ± 8 nM | SVSEIQLMHNLGKHLNSMERVEWLRAKLQDV-NH2 [Lys^26→Ala] | –
three- to four-fold | – | SVSEIQLMHNLGKHLNSMERVEWLRKKAQDV-NH2 [Leu^28→Ala] | –
three- to four-fold | – | SVSEIQLMHNLGKHLNSMERVEWLRKALQDV-NH2 [Lys^27→Ala] | –
two- to five-fold reductions | – | AVSEIQLMHNLGKHLNSMRRVEWLREKLQDV-NH2 [Lys^26→Glu] | –
– | 54 ± 13 nM | SVSEIQLMHNLGKHLNSMRRVAWLRKKLQDV-NH2 [Glu^19,22→Arg,Ala] | enhancement in apparent PTHR-binding affinity relative to parent peptide: did not lead to further improvements
